Paper PMC11101637, “Bioinformatics leading to conveniently accessible, helix enforcing, bicyclic ASX motif mimics (BAMMs)” (Nature Communications, 2024)
Numbered stars: 1 amine (or outer) side, 2 acyl side, 3 side chain; on linkers, the order of the positions; unused ones are H or OH. Bridge positions count the residues as written; N and C are the ends. Ends that are not written are not given here. Peptide text beside a SMILES is read from it. mXylylene = c1cc(C[*:1])cc(C[*:2])c1

How the values were obtained:
circular dichroism = settings: PBS; pH 7.4; 25 °C; 5-30 uM
[1] = CD spectroscopy: percent helicity and ellipticity ratio 222/208 nm; type: physicochemical; settings: for % helicity: 5-30 μM peptide, three scans averaged, [θ]222/[θ]max
Method: Circular dichroism (CD) experiments
Concentrations of the stock solution were determined by […] absorption of Trp or 275 nm absorption of Tyr (and TMB, if present in peptides). Each sample was dissolved in 1x PBS (pH 7.4), 10% TFE/PBS or 20% TFE/PBS with the final concentration between 5 to 30 μM. CD spectra were acquired using circular dichroism spectrometer (Chirascan) equipped with a temperature controller using 1 mm cell at a scan speed of 0.5 nm/sec at indicated temperature. Each sample was scanned three times and the averaged spectrum was smoothed.
Calculation of percent helicity
For simplicity, ‘helicity’ or ‘helical’ in the following text all refers to α-type. For each peptide, mean residue ellipticities ([θ]/(c*n), c = concentration of the peptide, n = number of amino acids in the peptide) were used to calculate % helicity, which is an empirical indicator of peptide helicity. […] (n = number of amino acids in the peptide, T = 25.0 °C).

[2] = CD in PBS buffer (pH 7.4, 10 mM), 25.0 °C, 1 mm cell

Compound	ellipticity ratio 222/208 nm ([1]; CD in 10% TFE/PBS, 25 °C)	% helicity ([1]; CD in 10% TFE/PBS, 25 °C) [%]	% helicity [1, 2] [%]	ellipticity ratio 222/208 nm ([1]; CD in PBS, 25 °C)	reduction of helicity on substitution of Asp Ncap by Ala ([1]; CD in PBS, relative to bicyclo 12-mer) [%]	helicity (circular dichroism) [%]
C[C@H](NC(=O)[C@H](CCCCN)NC(=O)[C@H](C)NC(=O)[C@H](C)NC(=O)[C@H](C)NC(=O)[C@@H]1CSCc2cc3cc(c2)CSC[C@H](NC(=O)[C@@H](N)Cc2c[nH]c4ccccc24)C(=O)N[C@@H](CC(=O)O)C(=O)N[C@@H](C)C(=O)N[C@@H](C)C(=O)N[C@@H](CSC3)C(=O)N1)C(N)=O	–	–	–	–	–	59
C[C@H](NC(=O)[C@H](CCCCN)NC(=O)[C@H](C)NC(=O)[C@H](C)NC(=O)[C@H](C)NC(=O)[C@@H]1CSCc2cccc(c2)CSC[C@H](NC(=O)[C@@H](N)Cc2c[nH]c3ccccc23)C(=O)N[C@@H](CC(=O)O)C(=O)N[C@@H](C)C(=O)N[C@@H](C)C(=O)N[C@@H](C)C(=O)N1)C(N)=O (H-WCDAAACAAAKA-NH2; linker 2-7 via mXylylene)	–	–	–	–	–	34
C[C@H](NC(=O)[C@H](CCCCN)NC(=O)[C@H](C)NC(=O)[C@H](C)NC(=O)[C@H](C)NC(=O)[C@H](C)NC(=O)[C@@H]1CSCc2cccc(c2)CSC[C@H](NC(=O)[C@@H](N)Cc2c[nH]c3ccccc23)C(=O)N[C@@H](CC(=O)O)C(=O)N[C@@H](C)C(=O)N[C@@H](C)C(=O)N1)C(N)=O (H-WCDAACAAAAKA-NH2; linker 2-6 via mXylylene)	–	–	–	–	–	32
Ac-AAAAKAAAAKAW-NH2 [AAKA 12-mer]	0.47	35	17	0.26	–	17
Ac-ADAALLAAAKAAAAKAW-NH2 [ADLL]	–	–	45	–	–	45
Ac-FDAALLAAAKAAAAKAW-NH2 [FDLL]	–	–	53	–	–	53
Ac-LAAALLAAAKAAAAKAW-NH2 [LALL]	–	–	45	–	–	45
Ac-LDAAALAAAKAAAAKAW-NH2 [LDAL]	–	–	69	–	–	69
Ac-LDAAELAAAKAAAAKAW-NH2 [LDEL]	–	–	52	–	–	52
Ac-LDAAFLAAAKAAAAKAW-NH2 [LDFL]	–	–	69	–	–	69
Ac-LDAALAAAAKAAAAKAW-NH2 [LDLA]	–	–	39	–	–	39
Ac-LDAALLAAAKAW-NH2	–	–	–	–	–	28
Ac-LDAALLAAAKAW-NH2 [LDLL 12-mer]	0.57	43	28	0.39	–	–
Ac-LDAAQLAAAKAAAAKAW-NH2 [LDQL]	–	–	37	–	–	37
Ac-LDAATLAAAKAAAAKAW-NH2 [LDTL]	–	–	63	–	–	63
Ac-QVARQLAEIY-NH2 [1l]	0.64	20	16	0.48	–	16
Ac-VDAALLAAAKAAAAKAW-NH2 [VDLL]	–	–	48	–	–	48

Now from value to compound, other results behind:

ellipticity ratio 222/208 nm ([1]; CD in 10% TFE/PBS, 25 °C)	% helicity ([1]; CD in 10% TFE/PBS, 25 °C) [%]	% helicity [1, 2] [%]	ellipticity ratio 222/208 nm ([1]; CD in PBS, 25 °C)	reduction of helicity on substitution of Asp Ncap by Ala ([1]; CD in PBS, relative to bicyclo 12-mer) [%]	Compound	helicity (circular dichroism) [%]
0.44	24	10	0.23	–	CSC[C@H](NC(=O)[C@H](C)NC(=O)[C@H](CCC(N)=O)NC(=O)[C@H](CC(=O)O)NC(=O)[C@@H](N)CSC)C(=O)N[C@@H](CSC)C(=O)N[C@@H](CC(C)C)C(=O)N[C@@H](CC(C)C)C(=O)N[C@@H](CCCNC(=N)N)C(=O)N[C@@H](C)C(=O)N[C@@H](CC(C)C)C(=O)N[C@@H](CC(=O)O)C(=O)N[C@@H](CCC(N)=O)C(=O)N[C@@H](Cc1ccc(O)cc1)C(N)=O [2m] (H-C(Me)DQAC(Me)C(Me)LLRALDQY-NH2; N-terminus and C-terminus assumed)	10
–	–	64	–	–	Ac-AAAAKAAAAKAAAAKAAAAKAW-NH2 [AAKA 22-mer]	64
–	–	48	–	–	Ac-AAAAKAAAAKAAAAKAW-NH2 [AAKA]	48
–	–	55	–	–	Ac-ADAAAAAAAKAAAAKAW-NH2 [ADAA]	55
–	–	69	–	–	Ac-IDAALLAAAKAAAAKAW-NH2 [IDLL]	69
–	–	83	–	–	Ac-LDAALFAAAKAAAAKAW-NH2 [LDLF]	83
–	–	52	–	–	Ac-LDAALIAAAKAAAAKAW-NH2 [LDLI]	52
–	–	101	–	–	Ac-LDAALLAAAKAAAAKAAAAKAW-NH2 [LDLL 22-mer]	101
–	–	93	–	–	Ac-LDAALLAAAKAAAAKAW-NH2 [LDLL]	93
–	–	70	–	–	Ac-LDAALVAAAKAAAAKAW-NH2 [LDLV]	70
–	–	67	–	–	Ac-LDAASLAAAKAAAAKAW-NH2 [LDSL]	67
0.53	23	13	0.27	–	Ac-QAEELLRALDQY-NH2 [2l]	13
–	–	–	–	49	WCAAACCAAAKA (also: bicyclic or more (positions not given here)) [bicyclo-D/A 12-mer, bicyclo 12-mer with Asp Ncap replaced with Ala]	–
